The test deals with P. acnes Group 1, 2 and 3 isolates. The test is described as follows: Growth of P. acnes isolates on semi-selective Brain Heart Infusion agar containing antibiotics. Type of test: cell-based, Propionibacterium acnes. On the procedure:
Brain Heart Infusion Agar (Oxoid Australia Ltd) was prepared containing 0.5% Tween 80 and adjusted to a pH of 6.0 using hydrochloric acid prior to autoclaving. […] Both antibiotics were prepared freshly immediately prior to use, and the agar plates were incubated at 37° C. for 24 hrs to ensure sterility then stored at 4° C. and used within 3 weeks of preparation.
Inclusion of gentamicin as a selective agent and Tween 80 as a growth stimulant for P. acnes was previously discussed by Kishishita (1980).

Take gentamicin: for the setting “at 6 μg/mL furazolidone and 4 μg/mL gentamicin in the semi-selective medium”, the “growth of some strains of P. acnes Groups 2 and 3” value is listed as “noticeable growth inhibition”. Further, the “maximal concentration that allowed reasonable growth” value (semi-selective agar, after 7 days of anaerobic incubation) was 4 µg/mL.

(Values after US20080255252A1, “Infectious Aetiology of Prostatic Disease and Methods to Identify Causative Agents” (Tissugen Pty. Ltd., priority 2004, published 2008).)
